In paper PMC9862111, “Isolation of the Lanostane Triterpenes Pholiols L–S from Pholiota populnea and Evaluation of Their Antiproliferative and Cytotoxic Activities” (Pharmaceuticals, 2023):

Tests used:
A549 [1] = assay: Antiproliferative MTT assay, 72 h; assay type: cell-based; settings: Homo sapiens, 6 × 10^3 cells/well, non-small cell lung cancer
Description: (§1) Antiproliferative Assays: The antiproliferative effect of the compounds was tested in decreasing serial dilutions of compounds (starting with 100 µM, then two-fold serial dilution) on human cell lines (Colo 205, Colo 320, MCF-7, A549, and MRC-5) in 96-well flat-bottomed microtiter plates. Firstly, the compounds were diluted in 100 µL of the medium, and then, 6 × 10^3 cells (Colo 205, Colo 320) in 100 µL of RPMI medium were added to each well, excluding the medium control wells. The adherent MCF-7, A549, and MRC-5 cells (6 × 10^3 cells/well) were seeded in EMEM medium for at least 4 h before the assay. The two-fold serial dilutions of the compounds were made in a separate plate (100–0.19 μM) and then transferred to the plates containing the adherent-corresponding cell line. […] The percentage of inhibition of cell growth was determined according to Equation (1), and expressed as IC50 values, defined as the concentration that induces 50% growth inhibition. IC50 values and the standard deviation (SD) of triplicate experiments were calculated using GraphPad Prism 5 software for Windows. Doxorubicin (2 mg/mL, Teva Pharmaceuticals, Budapest, Hungary) was used as a positive control and the vehicle DMSO as the negative control (Table 3). (1) […][ODsample−ODmedium control/ODcell control−ODmedium control]×100

Colo 320 [2] = assay: Antiproliferative MTT assay, 72 h; assay type: cell-based; settings: Homo sapiens, 6 × 10^3 cells/well, resistant colon adenocarcinoma
Description: as §1

MRC-5 = assay: Antiproliferative MTT assay, 72 h; assay type: cell-based; settings: Homo sapiens, MRC5, 6 × 10^3 cells/well, normal embryonic lung fibroblast
Description: as §1

in vitro = settings: human
Description: (§2) Cell Line Cultures: The human colon adenocarcinoma cell lines, Colo 205 (ATCC-CCL-222) doxorubicin-sensitive parent and Colo320/MDR-LRP (ATCC-CCL-220.1) doxorubicin resistant expressing ABCB1, were purchased from LGC Promochem (Teddington, UK). The cells were cultured in RPMI-1640 medium supplemented with 10% heat-inactivated fetal bovine serum (FBS), 2 mM L-glutamine, 1 mM Na-pyruvate, 100 mM HEPES. The MRC-5 (ATCC CCL-171) human embryonic lung fibroblast cell line and the hormone-responsive breast cancer cell line MCF-7 (ATCC HTB-22) were purchased from Sigma-Aldrich (Merck KGaA, Darmstadt, Germany). The MCF-7 and MRC-5 cells were cultured in Eagle’s Minimal Essential Medium (EMEM) containing 4.5 g/L of glucose and supplemented with a non-essential amino acid mixture, a selection of vitamins, and 10% FBS. The cell lines were incubated at 37 °C, 5% CO2, and 95% air atmosphere. The cells were detached with Trypsin-Versene (EDTA) solution for 5 min at 37 °C. The human non-small cell lung cancer cell line A549 was kindly provided by Brigitte Marian (Institute of Cancer Research, Department of Medicine I, Medical University of Vienna, Austria). A549 cells were grown in Eagle’s Minimal Essential Medium (EMEM) supplemented with 10% heat-inactivated fetal bovine serum.
(§3) Assay for Cytotoxic Effect: The effects of increasing concentrations of the compounds on cell growth were tested in 96-well flat-bottomed microtiter plates, as described for the antiproliferative assay, using 1 × 10^4 cells/well. The culture plates were incubated at 37 °C for 24 h; at the end of the incubation period, 20 μL of MTT solution (from a 5 mg/mL stock solution) was added to each well. After incubation at 37 °C for 4 h, 100 μL of sodium dodecyl sulfate (SDS) solution (10% SDS in 0.01 M HCl) was added to each well, and the plates were further incubated at 37 °C overnight. Cell growth was determined by measuring the optical density (OD) at 540 nm (ref 630 nm) with a Multiscan EX ELISA reader (Thermo Labsystems, Cheshire, WA, USA).
(§4) Sample preparation: The compounds were dissolved in DMSO to achieve the final concentration of 5 mM. The starting concentration of the compounds was 100 µM and 2-fold serial dilutions were prepared for the antiproliferative and cytotoxic assays. The following concentrations were used: 100-50-25-12.5-6.25-3.125-1.56-0.78-0.39-0.195 µM.

Colo 205 [3] = assay: Antiproliferative MTT assay, 72 h; assay type: cell-based, human; settings: for IC50: MTT, 72 h, 6 × 10^3 cells/well, sensitive colon adenocarcinoma; for Selectivity index (SI), Colo 205: antiproliferative assay, Colo 205 versus non-cancerous MRC-5
Description: as §1

MCF-7 [4] = assay: Antiproliferative MTT assay, 72 h; assay type: cell-based, human; settings: for IC50: Homo sapiens, MCF7, MTT, 72 h, 6 × 10^3 cells/well, breast cancer; for Selectivity index (SI), MCF-7: antiproliferative assay, MCF-7 versus non-cancerous MRC-5
Description: as §1

A549 [5] = assay: Cytotoxic MTT assay, 24 h; settings: Homo sapiens, A549, 24 h, read-out: Cytotoxic activity IC50 A549 Mean
Description: as §2, §3, §4

treated cancer cells = assay: Antiproliferative MTT assay, summary over cancer cell lines; assay type: cell-based, human; settings: versus MRC-5
Description: as §1

Colo 320 [6] = assay: Cytotoxic MTT assay, 24 h; settings: for IC50: Homo sapiens, COLO 320, 24 h, read-out: Cytotoxic activity IC50 Colo 320 (B) Mean; for RR (relative resistance ratio) (B/A): IC50 resistant (Colo 320)/IC50 sensitive (Colo 205), cytotoxic assay
Description: as §2, §3, §4

MCF-7 [7] = assay: Cytotoxic MTT assay, 24 h; settings: Homo sapiens, MCF7, 24 h, read-out: Cytotoxic activity IC50 MCF-7 Mean
Description: as §2, §3, §4

Colo 205 [8] = assay: Cytotoxic MTT assay, 24 h; settings: Homo sapiens, COLO 205, 24 h, read-out: Cytotoxic activity IC50 Colo 205 (A) Mean
Description: as §2, §3, §4

MCF-7 [9] = test system: MCF-7
Description: as §2, §3, §4

[10] = Cytotoxic MTT assay, 24 h; settings: human, MRC-5 embryonic lung fibroblast cells
Description: as §2, §3, §4

[11] = test system: sensitive (Colo 205) colon adenocarcinoma cells; parameters: method as in PMID 35293752; settings: read-out: Cytotoxic activity IC50 Colo 205; cited from earlier work
[12] = test system: resistant colon adenocarcinoma cells (Colo 320); parameters: method as in PMID 35293752; settings: read-out: Cytotoxic activity IC50 Colo 320; cited from earlier work
[13] = test system: p-glycoprotein (ABCB1) efflux pump; parameters: method as in PMID 35293752; settings: resistant Colo 320 cells; cited from earlier work
Colo 320 cells = test system: Colo 320 cells; parameters: method as in PMID 35293752; settings: checkerboard method; cited from earlier work
COX-2 = test system: COX-2; parameters: method as in PMID 36279964; settings: read-out: IC50 against COX-2; cited from earlier work
5-LOX = test system: 5-LOX; parameters: method as in PMID 36279964; settings: read-out: IC50 against 5-LOX; cited from earlier work

| Compound | IC50 (A549 [1]) [µM] | IC50 (Colo 320 [2]) [µM] | IC50 (MRC-5) [µM] | IC50 at 24 h (in vitro) [µM] | IC50 (Colo 205 [3]; Homo sapiens, COLO 205, 72 h) [µM] | IC50 (MCF-7 [4]) [µM] | IC50 (A549 [5]) [µM] | IC50 (Colo 320 [6]) [µM] | RR (relative resistance ratio) (B/A) (Colo 320 [6]) | IC50 (MCF-7 [7]) [µM] | IC50 (Colo 205 [8]) [µM] | also measured |
| --- | --- | --- | --- | --- | --- | --- | --- | --- | --- | --- | --- | --- |
| COC(=O)CC(C)(O)CC(=O)OC1C(O)CC2(C)C3=C(C(=O)CC2C1(C)C)C1(C)CCC(C(C)CCC(=O)C(C)(C)O)C1(C)CC3 (stereo not drawn) [Compound 1, pholiol L] | 53.7 | 28.1 | 70.9 | 66.1 | 32.4 | 21.7 | 93.6 | 33.9 | 0.84 | 43.7 | 40.3 | Selectivity to cancerous cell lines over normal cells (treated cancer cells): did not display selectivity |
| COC(=O)CC(C)(O)CC(=O)OC1CC2(C)C3=C(C(=O)CC2C(C)(C)C1OC(C)=O)C1(C)CCC(C(C)CCC(=O)C(C)(C)O)C1(C)CC3O (stereo not drawn) [Compound 2, pholiol M] | > 100 | 32.5 | > 100 | > 100 | 23.9 | 2.48 | 58.1 | 67.2 | 1.87 | > 100 | 35.9 | Cytotoxic activity IC50 MCF-7 Mean (MCF-7 [9]): did not show a cytotoxic effect; Selectivity index (SI), Colo 205 (Colo 205 [3]): > 4.18; Selectivity index (SI), MCF-7 (MCF-7 [4]): > 40 |
| COC(=O)C[C@@](C)(O)CC(=O)O[C@@H]1C[C@]2(C)C3=C(C(=O)C[C@H]2C(C)(C)[C@H]1OC(C)=O)[C@]1(C)CC[C@H]([C@H](C)CCC(=O)C(C)(C)O)[C@@]1(C)CC3=O [Compound 4, pholiol O] | 51.5 | 42.1 | 42.9 | 58 | 23.3 | 9.95 | 56.9 | 91.5 | 2.90 | > 100 | 31.5 | Cytotoxic activity IC50 MCF-7 Mean (MCF-7 [9]): did not show a cytotoxic effect; IC50 (Colo 205 [3]): 23.4 µM; Selectivity index (SI), Colo 205 (Colo 205 [3]): 1.8; Selectivity index (SI), MCF-7 (MCF-7 [4]): 4.3 |
| CC(=O)O[C@H]1[C@H](OC(=O)C[C@](C)(O)CC(=O)O)C[C@]2(C)C3=CC[C@]4(C)[C@@H]([C@H](C)CCC(=O)C(C)(C)O)CC[C@@]4(C)C3=CC[C@H]2C1(C)C [Compound 6, pholiol Q] | 51.2 | 69.2 | > 100 | > 100 | 50 | 46.3 | 85.9 | 34.7 | 0.62 | 43.8 | 56.1 | Selectivity to cancerous cell lines over normal cells (treated cancer cells): did not display selectivity |
| COC(=O)C[C@@](C)(O)CC(=O)O[C@@H]1C[C@]2(C)C3=C(C(=O)C[C@H]2C(C)(C)[C@H]1OC(C)=O)[C@]1(C)CC[C@H]([C@H](C)CCC(=O)O)[C@@]1(C)CC3 [Compound 8, pholiol S] | 89.8 | 68.5 | > 100 | 55.3 | 59.9 | 35.3 | 83.7 | 57.5 | 1.0 | 43 | 57.5 | Selectivity to cancerous cell lines over normal cells (treated cancer cells): did not display selectivity |
| COc1cccc2c1C(=O)c1c(O)c3c(c(O)c1C2=O)C[C@@](O)(C(=O)CO)C[C@@H]3O[C@H]1C[C@H](N)[C@H](O)[C@H](C)O1 [Dox, doxorubicin, reference compound] | 1.04 | 0.25 | 0.52 | – | 0.0617 | 0.155 | 10.2 | 12 | 3.60 | 5.73 | 3.32 | IC50 at 24 h [10]: 3.6 µM |
| CC(C)[C@@H](C)/C=C/[C@@H](C)[C@H]1CC[C@H]2C3=CC=C4C[C@@H](O)CC[C@]4(C)[C@H]3CC[C@]12C [Ergosterol] | – | – | – | – | – | – | – | – | – | – | – | IC50 [11]: 4.9 µM; IC50 [12]: 6.5 µM |
| COC(=O)C[C@@](C)(O)CC(=O)O[C@@H]1C[C@]2(C)C3=C(C(=O)C[C@H]2C(C)(C)[C@H]1OC(C)=O)[C@]1(C)CC[C@H]([C@H](C)CCC(=O)C(C)(C)O)[C@@]1(C)CC3 [pholiol B] | – | – | – | – | – | – | – | – | – | – | – | p-glycoprotein (ABCB1) efflux pump inhibitory activity [13]: inhibitory activity was found; Drug interaction with doxorubicin (Colo 320 cells): interacted in a synergistic manner |
| COC(=O)C[C@@](C)(O)CC(=O)O[C@@H]1C[C@]2(C)C3=C(CC[C@H]2C(C)(C)[C@H]1OC(C)=O)[C@]1(C)CC[C@H]([C@H](C)CCC(=O)C(C)(C)O)[C@@]1(C)[C@H](O)C3 [pholiol D] | – | – | – | – | – | – | – | – | – | – | – | Drug interaction with doxorubicin (Colo 320 cells): interacted in a synergistic manner |
| Pholiol F | – | – | – | – | – | – | – | – | – | – | – | IC50 (COX-2): 440 µM; IC50 (5-LOX): 194 µM |
| pholiol A | – | – | – | – | – | – | – | – | – | – | – | p-glycoprotein (ABCB1) efflux pump inhibitory activity [13]: inhibitory activity was found |
